Laboratory results taken from US4939124A, “Treatment and diagnosis of dementia” (Laboratorios Serono S.A., priority 1988, dated 1990).

How the values were obtained:
Male Wistar rats [1] = assay: Locomotor activity in open field paradigm (OUCEM-86), i.c.v. injection; assay type: in vivo
Text: (§1) To clarify whether SS and GRF display at the central level the same antagonistic effect that they have at the pituitary level, the effects of these neuropeptides on several behavioral parameters have been studied using the OUCEM-86^TM (Osaka University Computerized Electronic Maze). The system is integrated by the following components: a Programmable Electronic Platform (PEP) (620×620 mm) equipped with 48 photo beam sensors (OPX-T30); a Programming Panel (PP) (Model BECM-0064) for paradigm stimulation; a Shock Generator Scrambler (SGS) (Model BSG-1065) to apply continuous or discontinuous electric current to the PEP; a Control Station (CS) (BEC 16-Bio Computer Control Station BCS-1105; Bio Medica, Ltd., Osaka) which processes inputs/outputs as an interface device to automatically computerize behavioral parameters; and a Computer System (NEC PC-9801 VM2) with 1 megabyte Random Access Memory (RAM) for data processing and experimental setting.
(§2) Male Wistar rats (175-200 g) (N =5-8 rats/group) received intracerebroventricular (i.c.v.) injections of GRF1-44 and SS-14 over a range of 0.1 to 10 mcg. Then the rats were studied in the OUCEM under two different paradigms (e.g., open field and maze paradigms).
The animals were placed in the PEP for 30-minute periods and locomotor activity (LA) was automatically recorded in an open field paradigm. Total LA is represented as total inputs (I/O) including movements in four-footed position (4F) and in two-footed position (2F), grooming, rearing and jumping activity, while linear (horizontal) movements (4F) are represented as pulses per minute (pm) or cm^2 /min

[2] = test system: SDAT patients and controls; assay: Mental performance and behavior after the GRF test (DRS, MMS, BCRS, MNS); assay type: in vivo, human; conditions: for DRS score: basal 3.5±1.75; for MMS score: basal 3.5±2.65
Procedure: All the SDAT patients met the DSM-III criteria for primary degenerative dementia and rigorous diagnostic criteria for SDAT. […] In LOSDAT, the onset of the disease occurred after the age of 60. The degree of severity of the dementia was assessed with Hasegawa's Dementia Rating Scale (DRS) (Hasegawa K., Inoue K. "An investigation of dementia rating scale for the elderly." Seishinigaku 16:965-969, 1974), Folstein's Mini-Mental State (MMS) Test (Folstein M. F., Folstein S., McHugh P. "Mini-mental state: a practical method for grading the cognitive state of patients for the clinician." J. Psychiat. Res. 12:189-198, 1975) and a modified model of the Brief Cognitive Rating Scale (BCRS) and Functional Assessment Stages (FAST) of Reisberg (Reisberg B., Ferris S. H., De Leon M. J. "Senile dementia of the Alzheimer type: Diagnosis and differential diagnostic features with special reference to functional assessment staging." in: Traber J., Gispen W. H. (Ed). Senile dementia of the Alzheimer type. pp 18-37, Springer-Verlag, Berlin, 1985). Concomitant pathology other than SDAT was discarded under a careful screening of the subjects with CT Scan, EEG, ECG and complementary laboratory data. Current diagnosis or history of SDM-III major affective disorder or schizophrenia as well as history of endocrine disease were criteria for exclusion. All of the control subjects were free of psychiatric and endocrine illness. All subjects included had been drug-free for a minimum of 7 days before testing.
Simultaneously to the performance of the GRF test, electroencephalograhic and cardiovascular monitorization of the subjects were carried out. Twenty-four hours prior to the GRF test, and 3, 12, 24 and 48 hours after testing, the DRS, MMS, BCRS, and FAST tests were performed to evaluate mental performance and behavior. Additional monitoring of GRF effects was done by global physician assessment and evaluation of the Mihara Nursing Scale (MNS). This test was developed to be used as a non-cognitive parametric indicator involving several items, including quantification of food intake, locomotion, social interaction, and complementary laboratory data.
The results were analyzed statistically by the Student's test, analysis of variance (ANOVA) and the Mann-Whitney test using a NEC PC-9801VM2 computer.

Male Wistar rats [3] = assay: Locomotor activity and learning in maze paradigm (escape from 1.5 mA shock area), i.c.v. injection; assay type: in vivo
Procedure: The animals had to learn to escape from the shock area in order to avoid a continuous 1.5 mA electric shock. Experimental time --30 minutes.
The rats were treated intracerebroventricularly with SS-14 (1 mcg) and GRF1-44 (1 mcg) and their behavior was automatically recorded by computer using the maze paradigm shown in FIG. 1. p/t denotes pulses per time unit (minute). Locomotor activity was quantified in pulses per minute or cm^2 /min. Total inputs (I/O) in neutral position (white bars) and shock position (black bars) denote how many times the animals enter neutral and shock areas. The N/S ratio results from dividing I/O in neutral position by I/O in shock position and is interpreted as an index of learning in the 30-minute experimental period. The positional time (seconds) represents how long the animals stay in neutral (white bars) or shock (black bars) areas. N-sp and S-sp (in seconds) indicate the time-latency per movement or input in neutral (white bars) and shock (black bars) areas, respectively.
as §1, §2
The amount of inputs (I/O) induced by SS was 103.5±29.5 (control =216.25±55.19, t=8.49, p<0.005) in the neutral area (NA) and 77.14±13.5 I/O in the shock area (SA) (control =298±40, t=1.26, n.s.). GRF generated 459.35±32.5 I/O in NA (t=18.13, p<0.005) and 340.5±63.5 I/O in SA (t=9.07, p<0.005) (FIGS. 1C,3). The NA/SA (N/S) ratios for control, SS- and GRF-treated rats were 0.72, 1.33, and 1.35, respectively (FIG. 2).

growth hormone releasing factor [GRF]
locomotor activity (LA), open field (Male Wistar rats [1]; 1 mcg i.c.v. (SS-14 / GRF1-44), 30-minute period, control 31.16±6.90 pm): 47.60±5.35 pm | locomotor activity (LA), open field (Male Wistar rats [1]; GRF1-44 1 mcg i.c.v., control 1122±248 cm^2 /min): 1713.6±69.5 cm^2 /min | qualitative behavioral change, open field (Male Wistar rats [1]; GRF 1 mcg i.c.v.): hyperkinetic syndrome characterized by compulsive, uncontrolled movements | DRS score ([2]; 3 hr after GRF test): 5.5±2.10 | MMS score ([2]; 3 hr after GRF test): 5.15±3.75 | DRS score ([2]; 12 hr after GRF test): 6.75±3.25 | MMS score ([2]; 12 hr after GRF test): 5.5±3.65 | DRS score ([2]; 24 hr after GRF test): 4.35±1.95 | MMS score ([2]; 24 hr after GRF test): 4.5±2.75 | DRS score ([2]; 48 hr after GRF test): 3.5±1.55 | MMS score ([2]; 48 hr after GRF test): 4.35±2.75 | duration of behavioral changes ([2]; BCRS and MNS changes after GRF test): transient | BCRS Axis 4 (orientation) affected by GRF ([2]; after GRF test): 30% | BCRS Axis 7 (psychomotor) affected by GRF ([2]; after GRF test): 50% | BCRS Axis 8 (mood and behavior) affected by GRF ([2]; after GRF test): 40% | bulimic syndrome developed ([2]; after GRF test): 2 patients | appetite increased (MNS), share of subjects ([2]; controls): 30% | appetite increased (MNS), share of subjects ([2]; patients): 45% | social interaction improved (MNS), share of subjects ([2]; patients): 40% | locomotor activity (LA), maze paradigm (Male Wistar rats [3]; 1 mcg i.c.v., 30 minutes, control 17.12±5.42 pm): 26.66±3.15 pm | NA/SA (N/S) ratio (index of learning) (Male Wistar rats [3]; 1 mcg i.c.v., control 0.72): 1.35 | amount of inputs (I/O) in the neutral area (NA) (Male Wistar rats [3]; 1 mcg i.c.v., control 216.25±55.19): 459.35±32.5 I/O | amount of inputs (I/O) in the shock area (SA) (Male Wistar rats [3]; 1 mcg i.c.v., control 298±40): 340.5±63.5 I/O | I/O rate and positional time in SA (Male Wistar rats [3]; GRF i.c.v., hyperkinetic syndrome, vs control group): significantly higher than in the control group | learning abilities (N/S ratio as index) (Male Wistar rats [3]; doses of approximately 6.10×10^-10 mol (SS) and 1.98×10^-10 mol (GRF), i.c.v.): improve learning abilities
